# Assay results: PubChem BioAssay (NCI)
#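 These data come from cells grown in 96-well plates and exposed to compound for 48 hours at five concentrations. The concentration for full growth arrest is given as TGI.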 Where a SMILES comes first, the peptide text is derived from it. The star is where a group is joined. Cbz = O=C(OCc1ccccc1)*
# Assays:
# Assay in all cases: NCI anticancer screen, dose series, 48 h
# PC-3 prostate = test system: PC-3 prostate
# T-47D breast = test system: T-47D breast
# MCF7 breast = test system: MCF7 breast
# MDA-MB-231 breast = test system: MDA-MB-231 breast
# NCI/ADR-RES ovarian = test system: NCI/ADR-RES ovarian
# HS 578T breast = test system: HS 578T breast
SMILES,TGI (PC-3 prostate) [µM],TGI (T-47D breast) [µM],TGI (MCF7 breast) [µM],TGI (MDA-MB-231 breast) [µM],TGI (NCI/ADR-RES ovarian) [µM],TGI (HS 578T breast) [µM]
CCOC(=O)[C@@H](NC(=O)OC(C)(C)C)[C@@H](O)C(=O)OCC,> 100,> 100,> 100,> 100,> 100,> 100
CCOC(=O)C(NC(=O)c1cccc(Cl)c1)(Nc1ccc(S(=O)(=O)Nc2cc(C)nc(C)n2)cc1)C(F)(F)F (configuration not stated),> 100,> 100,> 100,> 100,> 100,> 100
COc1ccc2nc3cc([N+](=O)[O-])ccc3c(Nc3ccc(S(=O)(=O)Nc4ncccn4)cc3)c2c1,> 100,> 100,> 100,> 100,> 100,92.4
[N-]=[N+]=Nc1c(-c2ccccc2)c(=O)n(-c2ccccc2)c2ccccc12,> 100,82.2,> 100,> 100,> 100,> 100
CCOP(=O)(Nc1ccc(-c2ccc(N)cc2)cc1)OCC,> 100,,> 100,> 100,> 100,> 100
Cc1nc(C)c(N2CCN(S(N)(=O)=O)CC2)c(=O)[nH]1,> 100,> 100,> 100,> 100,> 100,> 100
CC(=O)C1C(=O)C(C(C)=O)C2C3C=CC(C3)C12 (configuration not stated),> 100,> 100,> 100,> 100,> 100,> 100
CCOC(=O)C(NC(=O)c1ccccc1)(c1ccc(S(=O)(=O)Nc2onc(C)c2C)cc1)C(F)(F)F (configuration not stated),> 100,> 100,> 100,> 100,> 100,> 100
COC(=O)C(CC(C)C)NC(=O)C(CCCN=C(N)N)NC(=O)OCc1ccccc1 (stereo not drawn) (Cbz-Arg-Leu-OMe; configuration not given here),> 100,> 100,> 100,> 100,> 100,> 100
CC(C)(C)OC(=O)NCCC1CNc2ccccc21 (configuration not stated),> 100,> 100,> 100,> 100,> 100,> 100
COC(=O)[C@@H]1C[C@]2(Br)c3ccccc3N(S(=O)(=O)c3ccccc3)[C@@H]2N1C(=O)OC,> 100,> 100,> 100,> 100,> 100,> 100
Cc1oc2nc(N(C)C)nc(NN)c2c1C,> 100,> 100,,> 100,> 100,> 100
CSc1nc(-c2ccccc2)nc(C(C#N)C#N)n1,> 100,> 100,> 100,> 100,> 100,> 100
CC(C)=NOC(=O)OC[C@H]1O[C@@H](n2cnc3c(N)ncnc32)C(O)C1O (some centres not stated),> 100,> 100,> 100,> 100,> 100,> 100
c1cc(C2=NCCO2)c2ccsc2c1,> 100,> 100,> 100,> 100,> 100,49.8
Cc1c(C(=O)Nc2ccccc2)nnn1-c1ccnc2cc(C(F)(F)F)ccc12,> 100,> 100,> 100,> 100,> 100,> 100
CCO[C@H]1O[C@@H]2OC3(C)CCC4[C@H](C)CCC([C@H]1C)[C@]42OO3 (some centres not stated),> 100,> 100,> 100,> 100,> 100,> 100
O=C1c2cn[nH]c2N=C(Nc2ccccc2)C1N=Cc1ccc([N+](=O)[O-])cc1 (configuration not stated),> 10,,> 10,,,> 10
COCN1C(=N)C(C(=O)OC(C)(C)C)=C2C=C(O)C=CC21C (configuration not stated),30.6,9.93,22.9,29,69,82.9
CC(=O)Nn1cnc(C(=N)C#N)c1N,> 100,> 100,> 100,> 100,> 100,> 100
O=C(Nc1ccccc1)c1cc(S(=O)(=O)N2CCNC2=O)c(S)cc1Cl,> 100,> 100,> 100,> 100,> 100,> 100
COc1ccc(N/N=C/C2=CC(C)(C)C(C#N)(C#N)C(O)=C2C#N)cc1,> 100,> 100,> 100,> 100,> 100,> 100
